{"source": "patent US11701363B2", "about": "“Methods for treating viral disorders” (TRUSTEES OF BOSTON UNIVERSITY, priority 2009, dated 2023)", "key": {"HIV-1": {"tested_on": "HIV-1", "settings": "OD converted to pg of protein; compared with vehicle alone", "quoted_text": "Virus production (p24 release) was examined in an HIV-1-infected monocyte line. Cells were treated or not treated with HDAC-inhibitors and other compounds. P24 release expressed as optical density (“OD”) (FIG. 13), and then converted to pg of protein (FIG. 14). […] DMSO was vehicle for some of the compounds tested."}, "EBV TK": {"tested_on": "EBV TK", "assay": "TK mRNA level by reverse transcription and real-time PCR in P3HR1 cells", "type": "cell-based, Epstein-Barr virus", "description": "To measure the relative level of TK mRNA in various total RNA preparations, reverse transcription and quantitative PCR using real time PCR technology was used. Five micrograms of total RNA was reverse-transcribed using random hexamer primers and Superscript III cDNA synthesis kit (Invitrogen). The cDNA was diluted to a final volume of 60 μl with sterile water, 8 μl of which was then used in each real time PCR reaction in an ABI 7500 […] using SYBR-Green technology. Primers used for the amplification of TK were EBV-TK1-F: 5′-[…]-3′; EBV-TK1-R: 5′-[…]-3′. The ß-actin mRNA level in those samples were determined similarly using ß-actin-specific primers Actin/hu-F: 5′-[…]-3′; Actin/hu-R: 5′-[…]-3′. The relative level of TK expression in a sample was calculated following normalization of ß-actin expression level."}, "P3HR1 cells": {"tested_on": "P3HR1 cells", "assay": "Viable cell counts of P3HR1 cells (toxicity assays and combination treatment with GCV)", "description": "The EBV-positive B lymphoma cell line P3HR1 was used throughout these assays. The P3HR1 cell line was originally derived from Burkitt's lymphoma patient. EBV maintains a latent state of replication in this cell line. Cells were maintained in RPMI 1640 with 10% fetal bovine serum containing 100 U penicillin per ml and 100 μg streptomycin per ml. The HDAC inhibitors used were from five different classes: a) short chain fatty acids, b) hydroxamic acids, c) benzamides, d) cyclic tetrapeptides, and e) largazoles.\nToxicity assays with two anti-herpesvirus drugs, Gancicovir (GCV) and Penciclovir (PCV), treated to P3HR1 cells alone was conducted as a control. A total of 3×10^5 P3HR1 cells were incubated with various concentrations of GCV or PCV and incubated for 6 days. Viable cell counts were measured and toxicity was expressed as percentage of cell growth compared to untreated cells."}, "viral thymidine kinase": {"tested_on": "viral thymidine kinase", "assay": "Expression of viral thymidine kinase in EBV-infected lymphocytes", "type": "cell-based", "description": "Three such examples are as follows. First, many of the RNA viruses such as HIV and other retroviruses require a reverse transcriptase to transcribe their genome into DNA. A few of the agents that induce expression or activity of retroviruses and their encoded genes, such as, for example, reverse transcriptase, are known to those of ordinary skill in the art. Anti-viral agents such as nucleoside analogs can be administered to the patient. Those substrate analogs will be specifically recognized by the reverse transcriptase that, when incorporated into the infected-cell genome, prevent viral replication and may also result in cell death. Second, many viruses require an active protease to assemble virus capsids to be packaged with viral genome. Protease inhibitors or proteases that alter cleavage patterns so that packaging cannot occur can be specifically targeted with an anti-viral agent that comprises an amino acid analog or toxic conjugate. […] Ganciclovir or famcyclovir, in the presence of the viral thymidine kinase or other viral kinases, destroys the infected cell. Treatment of infected cells with both agents, according to the invention, will selectively destroy EBV virus-infected cells. In another aspect, of infected cells with both agents, according to the invention, will selectively disable or disrupt the viral activity within the cells in vivo."}, "EBV-TK": {"tested_on": "EBV-TK", "assay": "Induction of EBV-TK activity in EBV-immortalized B-cells and patient-derived tumor cells", "type": "cell-based, Epstein-Barr virus", "settings": "preliminary in vitro studies", "description": "In some embodiments, inducing agents include arginine butyrate and/or other histone deacetylase inhibitors. […] TK expression can be used as a point for attack by anti-viral agents, allowing for treatment of latent infections.\nTreatment of patients with viral-associated tumors such as EBV with inducing agents such as arginine butyrate, to induce the expression of EBV-TK, and GCV, to eliminate EBV-TK expressing tumor cells, is an effective, non-toxic therapy. […] Without wishing to be bound by theory, it is believed that just the presence of the EBV genome in latent form would make the tumor susceptible to this combination protocol."}}, "note": "Like-named read-outs stand apart in the source and are kept apart here.", "data": [{"compound": "Cc1[nH]c2ccccc2c1CCNCc1ccc(/C=C/C(=O)NO)cc1", "note": "[LHB589, panobinostat]", "values": [{"measurement": "virus production (p24 release)", "setting": "HIV-1", "value": "active"}]}, {"compound": "Nc1ccccc1NC(=O)c1ccc(CNC(=O)OCc2cccnc2)cc1", "note": "[MS-275, 3-pyridinylmethyl [[4-[[(2-aminophenyl)amino]carbonyl]phenyl]methyl] carbamate]", "values": [{"measurement": "TK expression", "setting": "EBV TK; 500 nM and higher concentrations", "value": "strongly induced TK expression"}, {"measurement": "TK expression", "setting": "EBV TK; 6 hr post treatment", "value": "induced"}, {"measurement": "sensitizing P3HR1 cells to GCV-mediated effects", "setting": "P3HR1 cells; 500 nM", "value": "as efficient as 1.0 mM NaB"}, {"measurement": "sensitizing P3HR1 cells to GCV-mediated killing after short exposure", "setting": "P3HR1 cells; 24 hr exposure to MS-275+GCV, then GCV for up to 6 days", "value": "sensitized the cells to GCV-mediated effects as efficiently as a 72 hr continuous treatment"}]}, {"compound": "CCCC(=O)[O-].[Na+]", "note": "[NaB, Na-butyrate]", "values": [{"measurement": "optimal concentration for combination treatment with GCV", "setting": "P3HR1 cells", "value": 1.0, "unit": "mM"}, {"measurement": "cell growth with inducing agent alone", "setting": "P3HR1 cells; NaB alone at a concentration higher than 1.0 mM", "value": "reduces cell growth to a significant degree"}, {"measurement": "synergistic effects of GCV", "setting": "P3HR1 cells; NaB at concentrations higher than 1.0 mM", "value": "lost"}]}, {"compound": "Nc1nc2c(ncn2CCC(CO)CO)c(=O)[nH]1", "note": "[PCV, Penciclovir]", "values": [{"measurement": "toxicity to P3HR1 cells (percentage of cell growth compared to untreated cells)", "setting": "P3HR1 cells", "value": "less toxic to the cells compared to GCV"}, {"measurement": "level of inhibition of cell growth at higher concentrations", "setting": "P3HR1 cells; in combination with Na-butyrate, concentrations higher than 40 μM", "value": "did not change significantly"}]}, {"compound": "CCCCCCCCCCCCCC(=O)O[C@@H]1[C@@H](C)[C@@]2(O)[C@@H](C=C(CO)C[C@]3(O)C(=O)C(C)=C[C@@H]23)[C@@H]2C(C)(C)[C@]12OC(C)=O", "note": "[PMA, phorbol myristate acetate]", "values": [{"measurement": "virus production (p24 release)", "setting": "HIV-1", "value": "active"}]}, {"compound": "O=C(/C=C/c1cccc(S(=O)(=O)Nc2ccccc2)c1)NO", "note": "[PXD101, Belinostat]", "values": [{"measurement": "TK expression", "setting": "EBV TK; 5 μM", "value": "high level of TK expression"}]}, {"compound": "CCC(Nc1ncnc2ccccc12)C(=O)O", "note": "(centres unmarked) [RB3]", "values": [{"measurement": "virus production (p24 release)", "setting": "HIV-1", "value": "increased viral production at levels similar to the control of vehicle alone"}]}, {"compound": "O=C(CCCCCCC(=O)Nc1ccccc1)NO", "note": "[SAHA, suberoyl anilide hydroxamic acid]", "values": [{"measurement": "TK expression (TK mRNA level)", "setting": "EBV TK", "value": "higher level than that seen with efficient concentrations of butyrate (1.0 mM)"}, {"measurement": "reduction of cell growth in combination treatment with GCV", "setting": "P3HR1 cells", "value": "less effective in reducing cell growth when combined with an antiviral agent compared to butyrate"}]}, {"compound": "CCC(C)(C)C(=O)O", "note": "[ST20, 2,2-dimethyl butyrate]", "values": [{"measurement": "virus production (p24 release)", "setting": "HIV-1", "value": "increased viral production at levels similar to the control of vehicle alone"}]}, {"compound": "O=C(CCCCCN1C(=O)c2cccc3cccc(c23)C1=O)NO", "note": "[Scriptaid]", "values": [{"measurement": "reduction of cell growth in combination treatment with GCV", "setting": "P3HR1 cells; especially at 500 nM and 1 μM", "value": "strong synergistic effect with GCV"}]}, {"compound": "CC(/C=C/C(=O)NO)=C\\[C@@H](C)C(=O)c1ccc(N(C)C)cc1", "note": "[TSA, trichostatin A]", "values": [{"measurement": "virus production (p24 release)", "setting": "HIV-1", "value": "active"}]}, {"compound": "CCCC(CCC)C(=O)O", "note": "[VA, valproic acid]", "values": [{"measurement": "TK expression (TK mRNA level)", "setting": "EBV TK", "value": "less efficient than NaB"}, {"measurement": "reduction of cell growth in combination treatment with GCV", "setting": "P3HR1 cells", "value": "very similar activity"}]}, {"compound": "CCC(=O)CCCCC[C@@H]1NC(=O)[C@H]2CCCCN2C(=O)[C@H]([C@@H](C)CC)NC(=O)[C@H](Cc2cn(OC)c3ccccc23)NC1=O", "note": "[apicidin]", "values": [{"measurement": "virus production (p24 release)", "setting": "HIV-1", "value": "active"}, {"measurement": "cell growth without any GCV", "setting": "P3HR1 cells; 200 nM", "value": "significantly retarded"}, {"measurement": "toxicity to the cells", "setting": "P3HR1 cells; 500 nM", "value": "very toxic to the cells"}, {"measurement": "toxicity to the cells", "setting": "P3HR1 cells; apicidin alone, concentrations higher than 200 nM", "value": "quite toxic to the cells"}, {"measurement": "reduction of cell growth over cells treated with apicidin alone", "setting": "P3HR1 cells; combination with GCV, 100 nM and 200 nM", "value": "40-50%"}]}, {"compound": "CC(C)C(N)=O", "note": "[isobutyramide]", "values": [{"measurement": "expression of viral thymidine kinase and other viral protein kinases", "setting": "viral thymidine kinase", "value": "enhance expression"}]}, {"compound": "CCCCCCCC(=O)SCC/C=C/[C@@H]1CC(=O)NCc2nc(cs2)C2=N[C@@](C)(CS2)C(=O)N[C@@H](C(C)C)C(=O)O1", "note": "[largazole]", "values": [{"measurement": "virus production (p24 release)", "setting": "HIV-1", "value": "active"}]}, {"compound": "Oxamflatin", "values": [{"measurement": "reduction of cell growth in combination treatment with GCV", "setting": "P3HR1 cells", "value": "synergistic activity with GCV"}, {"measurement": "activity level (growth suppression) in combination with GCV", "setting": "P3HR1 cells; 200 nM", "value": "more than what typically seen with 1.0 mM NaB"}]}, {"compound": "arginine butyrate", "values": [{"measurement": "expression of viral thymidine kinase and other viral protein kinases", "setting": "viral thymidine kinase", "value": "enhance expression"}, {"measurement": "virus production (p24 release)", "setting": "HIV-1", "value": "active"}, {"measurement": "EBV-TK activity", "setting": "EBV-TK", "value": "induces EBV-TK activity"}]}]}
